The results in this text go back to US11179384B2, “Treatment of nonalcoholic fatty liver disease” (TAKEDA GMBH, priority 2016, dated 2021).

The test relates to TNFα gene expression in THP-1 cells. The experiment in a line: Anti-inflammatory effect in THP-1 cells (LPS-induced TNFα gene expression). It is filed as cell-based, human. The conditions noted are these: PMA-treated THP-1 cells; 0.0001-1 μM, LPS 1 ng/mL, forskolin 0.1 μM, 5 hours. How it is done:
Anti-inflammatory effect of Compound A was evaluated by gene expression of TNFα induced by LPS in THP-1 cells, a human monocytic cell line.
THP-1 cells (ATCC) were suspended in RPMI medium containing 10% FBS and 50 ng/mL PMA (2.5×10^5 cells/mL) and seeded on 96 well plates. Fourty-eight hours after the seeding, the medium was exchanged to serum-free RPMI medium. Three hours after the exchange, Compound A (0, 0.0001, 0.001, 0.01, 0.1 and 1 μM), LPS (1 ng/mL), and forskolin (0.1 μM) were added to the THP-1 cells. After the 5-hours incubation, total RNA was extracted from cell lysate using RNeasy 96 Kit (QIAGEN 74182). cDNA was amplified using High-Capacity cDNA Reverse Transcription Kit (ABI 4368813), and target gene mRNA was measured using Taqman PCR. The target gene expression level was normalized by GAPDH. The experiment was repeated 5 times.

Consider `CCOc1cc2c(cc1OC)C(c1ccc(=O)n(C)c1)=N[C@@H]1CC[C@@H](O)C[C@H]21` [Compound A, 5-((2R,4aR,10bR)-9-Ethoxy-2-hydroxy-8-methoxy-1,2,3,4,4a,10b-hexahydro-phenanthridin-6-yl)-1-methyl-1H-pyridin-2-one], for which the “LPS-induced TNF-α gene expression in THP-1 cells” value is listed as “dose-dependently suppressed”.
